Test results reported in ChEMBL document CHEMBL1201862, “PubChem BioAssay data set” (2004).
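Growth conditions: 96-well plates. Treatment: test compound, 48 hours, 5 concentrations. Analysis: linear interpolation between bracketing concentrations; unreached endpoints set to highest concentration. GI50 is the concentration that inhibits growth by half.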 Activity calls are given as the source filed them. Rule as the data show it: active = GI50 up to about 1.1 µM and inactive = higher.

Assays:
Experiment in all cases: growth of human tumour cells (NCI), 48 h
[1] = test system: OVCAR-5
[2] = test system: T47D
[3] = test system: HOP-92
[4] = test system: COLO 205
[5] = test system: Hs-578T
[6] = test system: DU-145
[7] = test system: MCF7
[8] = test system: NCI-H226
[9] = test system: BT-549
[10] = test system: MOLT-4
[11] = test system: OVCAR-3
[12] = test system: 786-0
[13] = test system: PC-3
[14] = test system: NCI-H522
[15] = test system: M14
[16] = test system: HOP-62
[17] = test system: UO-31
[18] = test system: SF-539
[19] = test system: MDA-N
[20] = test system: Malme-3M

Structure (SMILES)	GI50 [1]	GI50 [2]	GI50 [3]	GI50 [4]	GI50 [5]	GI50 [6]	GI50 [7]	GI50 [8]	GI50 [9]	GI50 [10]	GI50 [11]	GI50 [12]	GI50 [13]	GI50 [14]	GI50 [15]	GI50 [16]	GI50 [17]	GI50 [18]	GI50 [19]	GI50 [20]
CCCCI(O)OS(=O)(=O)c1ccc(C)cc1	> 100 µM (inactive)	> 100 µM (inactive)	> 100 µM (inactive)	> 100 µM (inactive)	> 100 µM (inactive)	> 100 µM (inactive)	> 100 µM (inactive)	> 100 µM (inactive)	> 100 µM (inactive)	> 100 µM (inactive)	> 100 µM (inactive)	> 100 µM (inactive)	> 100 µM (inactive)	22.5 µM (inactive)	> 100 µM (inactive)	> 100 µM (inactive)	23.9 µM (inactive)	> 100 µM (inactive)	–	–
CC(CO)CCC(O)C(C)(O)C1CCC2(O)C3=CC(=O)C4CC(O)C(O)CC4(C)C3CCC12C (stereo not drawn)	> 100 µM (inactive)	–	> 100 µM (inactive)	> 100 µM (inactive)	–	> 100 µM (inactive)	> 100 µM (inactive)	> 100 µM (inactive)	> 100 µM (inactive)	> 100 µM (inactive)	> 100 µM (inactive)	> 100 µM (inactive)	> 100 µM (inactive)	> 100 µM (inactive)	> 100 µM (inactive)	> 100 µM (inactive)	> 100 µM (inactive)	> 100 µM (inactive)	> 100 µM (inactive)	> 100 µM (inactive)
C=C1CC(c2ccc(OCCCN3C(=O)c4ccccc4C3=O)c(OC)c2)OC1=O (stereo not drawn)	13.7 µM (inactive)	2.56 µM (inactive)	1.62 µM (inactive)	1.4 µM (inactive)	6.17 µM (inactive)	11.9 µM (inactive)	0.218 µM (active)	5.61 µM (inactive)	–	0.615 µM (active)	2.21 µM (inactive)	4.1 µM (inactive)	12.4 µM (inactive)	0.514 µM (active)	4.3 µM (inactive)	15.6 µM (inactive)	3.69 µM (inactive)	0.303 µM (active)	3.44 µM (inactive)	3.27 µM (inactive)
CN1C(=O)C(O)CC1c1ccccc1C(F)(F)F (stereo not drawn)	> 100 µM (inactive)	–	> 100 µM (inactive)	> 100 µM (inactive)	–	> 100 µM (inactive)	> 100 µM (inactive)	> 100 µM (inactive)	> 100 µM (inactive)	> 100 µM (inactive)	> 100 µM (inactive)	> 100 µM (inactive)	> 100 µM (inactive)	> 100 µM (inactive)	> 100 µM (inactive)	> 100 µM (inactive)	> 100 µM (inactive)	> 100 µM (inactive)	> 100 µM (inactive)	> 100 µM (inactive)
BrC(=C(c1ccc(OC2CCCCO2)cc1)c1ccc(OC2CCCCO2)cc1)c1ccccc1 (stereo not drawn)	–	> 100 µM (inactive)	> 100 µM (inactive)	> 100 µM (inactive)	> 100 µM (inactive)	> 100 µM (inactive)	> 100 µM (inactive)	> 100 µM (inactive)	–	> 100 µM (inactive)	> 100 µM (inactive)	> 100 µM (inactive)	> 100 µM (inactive)	–	> 100 µM (inactive)	> 100 µM (inactive)	> 100 µM (inactive)	> 100 µM (inactive)	> 100 µM (inactive)	> 100 µM (inactive)
CC1=[N+]([O-])c2ccccc2C(=O)C1=O	> 100 µM (inactive)	–	69 µM (inactive)	> 100 µM (inactive)	–	–	–	15.8 µM (inactive)	–	43.2 µM (inactive)	29.2 µM (inactive)	> 100 µM (inactive)	–	23.3 µM (inactive)	> 100 µM (inactive)	> 100 µM (inactive)	> 100 µM (inactive)	> 100 µM (inactive)	–	> 100 µM (inactive)
CNc1nnc(CNc2ccc(-c3nnc(NC)n3N)cc2)n1N	> 100 µM (inactive)	–	> 100 µM (inactive)	> 100 µM (inactive)	–	> 100 µM (inactive)	> 100 µM (inactive)	> 100 µM (inactive)	12.4 µM (inactive)	> 100 µM (inactive)	> 100 µM (inactive)	> 100 µM (inactive)	> 100 µM (inactive)	–	> 100 µM (inactive)	> 100 µM (inactive)	> 100 µM (inactive)	> 100 µM (inactive)	> 100 µM (inactive)	–
Oc1c(NCn2nc(CCCCCCCCc3nn(CNc4ccc5ccccc5c4O)c(=S)o3)oc2=S)ccc2ccccc12	43.9 µM (inactive)	–	> 100 µM (inactive)	> 100 µM (inactive)	–	> 100 µM (inactive)	67.6 µM (inactive)	> 100 µM (inactive)	> 100 µM (inactive)	> 100 µM (inactive)	–	63.2 µM (inactive)	> 100 µM (inactive)	49 µM (inactive)	34.8 µM (inactive)	94.2 µM (inactive)	98.2 µM (inactive)	–	17.2 µM (inactive)	75.2 µM (inactive)
CCOC(=O)C1(C/C=C\CBr)CCCC1=O (stereo not drawn)	31.2 µM (inactive)	30.5 µM (inactive)	–	37.3 µM (inactive)	55.6 µM (inactive)	27.5 µM (inactive)	11.5 µM (inactive)	20.8 µM (inactive)	30.3 µM (inactive)	–	–	32.3 µM (inactive)	36.7 µM (inactive)	21.4 µM (inactive)	21.7 µM (inactive)	29.1 µM (inactive)	21.9 µM (inactive)	24.6 µM (inactive)	–	48.1 µM (inactive)
CCOC(=O)c1c(N2CCCC2)nsc1Nc1ccccc1	44.6 µM (inactive)	> 100 µM (inactive)	40.6 µM (inactive)	> 100 µM (inactive)	60 µM (inactive)	> 100 µM (inactive)	–	> 100 µM (inactive)	–	> 100 µM (inactive)	–	> 100 µM (inactive)	> 100 µM (inactive)	–	> 100 µM (inactive)	–	27.5 µM (inactive)	> 100 µM (inactive)	> 100 µM (inactive)	> 100 µM (inactive)
CCC(C)c1c(Cl)nc(Cl)nc1Cl (stereo not drawn)	16.7 µM (inactive)	–	–	–	21.6 µM (inactive)	16.3 µM (inactive)	4.45 µM (inactive)	2.86 µM (inactive)	1.75 µM (inactive)	0.271 µM (active)	4.57 µM (inactive)	10.9 µM (inactive)	12.7 µM (inactive)	0.582 µM (active)	1.44 µM (inactive)	4.72 µM (inactive)	17.9 µM (inactive)	23.4 µM (inactive)	6.44 µM (inactive)	5.75 µM (inactive)
CC1(C)C2CC(c3ccncc3)ON2C(C)(C)N1O (stereo not drawn)	> 100 µM (inactive)	> 100 µM (inactive)	> 100 µM (inactive)	> 100 µM (inactive)	> 100 µM (inactive)	> 100 µM (inactive)	> 100 µM (inactive)	> 100 µM (inactive)	–	> 100 µM (inactive)	> 100 µM (inactive)	> 100 µM (inactive)	> 100 µM (inactive)	–	> 100 µM (inactive)	> 100 µM (inactive)	> 100 µM (inactive)	> 100 µM (inactive)	> 100 µM (inactive)	> 100 µM (inactive)
CN(C)C(=S)/N=c1\ssc(=S)n1Cc1ccccn1	> 100 µM (inactive)	–	4.12 µM (inactive)	2.75 µM (inactive)	–	–	–	6.5 µM (inactive)	–	3.11 µM (inactive)	2.52 µM (inactive)	4.24 µM (inactive)	–	0.859 µM (active)	2.55 µM (inactive)	10.6 µM (inactive)	3.7 µM (inactive)	4.49 µM (inactive)	–	2.49 µM (inactive)
Clc1cccc(/N=C/C=C/Nc2cccc(Cl)c2)c1	24.8 µM (inactive)	–	42.5 µM (inactive)	16.3 µM (inactive)	29.8 µM (inactive)	29 µM (inactive)	18.8 µM (inactive)	> 10 µM (inactive)	16.1 µM (inactive)	22.2 µM (inactive)	18.3 µM (inactive)	15.7 µM (inactive)	15.1 µM (inactive)	14.8 µM (inactive)	–	16.8 µM (inactive)	16 µM (inactive)	17.2 µM (inactive)	13.9 µM (inactive)	> 10 µM (inactive)
S=c1sc2ccccc2n1CN1CCN(Cc2ccccc2)CC1	> 100 µM (inactive)	> 100 µM (inactive)	> 100 µM (inactive)	> 100 µM (inactive)	> 100 µM (inactive)	> 100 µM (inactive)	> 100 µM (inactive)	> 100 µM (inactive)	> 100 µM (inactive)	> 100 µM (inactive)	> 100 µM (inactive)	> 100 µM (inactive)	> 100 µM (inactive)	> 100 µM (inactive)	> 100 µM (inactive)	> 100 µM (inactive)	> 100 µM (inactive)	> 100 µM (inactive)	–	–
N=C(N)N1CCC(N2CCOCC2)CC1	> 100 µM (inactive)	> 100 µM (inactive)	> 100 µM (inactive)	> 100 µM (inactive)	> 100 µM (inactive)	> 100 µM (inactive)	> 100 µM (inactive)	> 100 µM (inactive)	–	> 100 µM (inactive)	–	> 100 µM (inactive)	–	–	> 100 µM (inactive)	> 100 µM (inactive)	> 100 µM (inactive)	> 100 µM (inactive)	–	> 100 µM (inactive)
COC(=O)[C@@H]1C[C@H](c2ccc(OC)c(OC)c2)OC1=O.COC(=O)[C@H]1C[C@H](c2ccc(OC)c(OC)c2)OC1=O	> 100 µM (inactive)	–	> 100 µM (inactive)	> 100 µM (inactive)	–	–	–	> 100 µM (inactive)	–	> 100 µM (inactive)	> 100 µM (inactive)	> 100 µM (inactive)	–	> 100 µM (inactive)	> 100 µM (inactive)	> 100 µM (inactive)	> 100 µM (inactive)	> 100 µM (inactive)	–	> 100 µM (inactive)
